Experimental data taken from patent publication US9290551B2, “Compounds for treating papilloma virus infection” (NanoVir, LLC, priority 2012, dated 2016).

Tested on: HPV 16
Assay: HPV 16 episome DNA levels in W12E cells by Q-PCR (Taqman)
Format: cell-based, Human papilloma virus
Settings: for IC50: effective (pseudo) IC50, 50% reduction in HPV DNA relative to vehicle (0.1% DMSO), read-out: HPV-16 IC50
Experimental: Cells maintaining HPV 16 DNA were cultured for 72 hours in the presence of cidofovir, interferon γ or polyamide. Viral DNA was then quantified using real-time PCR and compared to vehicle (DMSO)-treated control cultures.
Compounds were initially tested for effects on HPV 16 episome DNA levels in W12E cells by Q-PCR (Taqman™) over 3 concentration ranges (0.1, 1 and 10 μM). W12E cells are a cervical keratinocyte cell line originally identified by M. Stanley (Cambridge University), and later optimized and provided by P. Lambert (U. of Wisconsin). […] In all cases (initial tests and follow-up IC50 tests), dose testing was performed in triplicate. […] Furthermore, all experiments were conducted in triplicate, multiple times. The data were then combined, pseudo or effective IC50 values calculated, and variance determined to reveal the fit of the data to the model and its reliability.
Keratinocytes that maintain HPV 16 episomes were treated with increasing concentrations of polyamides.

Molecule CN(C)CCCNC(=O)CCNC(=O)CCNC(=O)c1cc(NC(=O)c2cc(NC(=O)c3cc(NC(=O)CCNC(=O)c4cc(NC(=O)c5cc(NC(=O)c6cc(NC(=O)CCCNC(=O)c7cc(NC(=O)c8cc(NC(=O)c9cc(NC(=O)CCNC(=O)c%10cc(NC(=O)c%11cc(NC(=O)c%12cc(NC(=O)c%13nccn%13C)cn%12C)cn%11C)cn%10C)cn9C)cn8C)cn7C)cn6C)cn5C)cn4C)cn3C)cn2C)cn1C [Polyamide 1025, ImPPPβPPPγPPPβPPPββDp] has an IC50 greater than 10 µM.

In the case of CN(C)CCCNC(=O)CCNC(=O)c1cc(NC(=O)c2nc(NC(=O)c3cc(NC(=O)c4cc(NC(=O)c5nc(NC(=O)CCCNC(=O)c6cc(NC(=O)c7cc(NC(=O)c8nc(NC(=O)CCNC(=O)c9nccn9C)cn8C)cn7C)cn6C)cn5C)cn4C)cn3C)cn2C)cn1C [Polyamide 1018, ImβIPPγIPPIPβDp], the IC50 is reported as greater than 10 µM.

CN(C)CCCNC(=O)CCNC(=O)c1cc(NC(=O)c2cc(NC(=O)c3cc(NC(=O)CCNC(=O)c4cc(NC(=O)c5cc(NC(=O)c6cc(NC(=O)CCCNC(=O)c7cc(NC(=O)c8cc(NC(=O)CCNC(=O)c9cc(NC(=O)c%10cc(NC(=O)c%11cc(NC(=O)c%12nccn%12C)cn%11C)cn%10C)cn9C)cn8C)cn7C)cn6C)cn5C)cn4C)cn3C)cn2C)cn1C [Polyamide 1002, ImPPPβPPγPPPβPPPβDp] showed an IC50 greater than 10 µM.

CN(C)CCCNC(=O)CCNC(=O)c1cc(NC(=O)c2cc(NC(=O)c3cc(NC(=O)c4cc(NC(=O)CCCNC(=O)c5cc(NC(=O)c6nc(NC(=O)CCNC(=O)c7nccn7C)cn6C)cn5C)cn4C)cn3C)cn2C)cn1C [Polyamide 1015, ImβIPγPPPPβDp] was tested, and the IC50 was greater than 10 µM.

CN(C)CCCNC(=O)CCNC(=O)c1cc(NC(=O)c2cc(NC(=O)c3cc(NC(=O)c4cc(NC=O)cn4C)cn3C)cn2C)cn1C [Polyamide 1038, OHC-PPPPβDp] gave an IC50 greater than 10 µM.

Work on CN(C)CCCNC(=O)CCNC(=O)c1cc(NC(=O)c2cc(NC(=O)c3cc(NC(=O)c4cc(NC(=O)c5cc(NC(=O)CCCNC(=O)c6cc(NC(=O)c7cc(NC(=O)c8cc(NC(=O)c9cc(NC(=O)c%10nccn%10C)cn9C)cn8C)cn7C)cn6C)cn5C)cn4C)cn3C)cn2C)cn1C [Polyamide 1010, ImPPPPγPPPPPβDp] yielded an IC50 greater than 10 µM.

With CN(C)CCCNC(=O)CCNC(=O)c1cc(NC(=O)c2cc(NC(=O)c3cc(NC(=O)c4nc(NC(=O)CCCNC(=O)c5cc(NC(=O)c6nc(NC(=O)c7nc(NC(=O)c8nccn8C)cn7C)cn6C)cn5C)cn4C)cn3C)cn2C)cn1C [Polyamide 1012, ImIIPγIPPPβDp] the IC50 was greater than 10 µM.

In the case of CN(C)CCCNC(=O)CCNC(=O)c1cc(NC(=O)c2cc(NC(=O)c3nc(NC(=O)c4cc(NC(=O)CCCNC(=O)c5nc(NC(=O)c6cc(NC(=O)c7nc(NC(=O)c8nccn8C)cn7C)cn6C)cn5C)cn4C)cn3C)cn2C)cn1C [Polyamide 1021, ImIPIγPIPPβDp], the IC50 is reported as greater than 10 µM.

Molecule CN(C)CCCNC(=O)CCNC(=O)c1cc(NC(=O)c2cc(NC(=O)c3nc(NC(=O)c4cc(NC(=O)c5nc(NC(=O)CCCNC(=O)c6cc(NC(=O)c7nc(NC(=O)c8cc(NC(=O)c9cc(NC(=O)c%10nccn%10C)cn9C)cn8C)cn7C)cn6C)cn5C)cn4C)cn3C)cn2C)cn1C [Polyamide 1019, ImPPIPγIPIPPβDp] has an IC50 greater than 10 µM.

Molecule ImPPPPγPPPPPβTa-FITC [Polyamide 1007] has an IC50 greater than 10 µM.

CN(C)CCCNC(=O)CCNC(=O)c1cc(NC(=O)c2cc(NC(=O)c3cc(NC(=O)CCNC(=O)c4cc(NC(=O)c5cc(NC(=O)c6cc(NC(=O)CCNC(=O)c7cc(NC(=O)CCNC(=O)CCCNC(=O)c8nc(NC(=O)c9cc(NC(=O)c%10cc(NC(=O)CCNC(=O)c%11cc(NC(=O)c%12nc(NC(=O)c%13cc(NC(=O)CCNC(=O)c%14cc(NC(=O)c%15cc(NC(=O)c%16nccn%16C)cn%15C)cn%14C)cn%13C)cn%12C)cn%11C)cn%10C)cn9C)cn8C)cn7C)cn6C)cn5C)cn4C)cn3C)cn2C)cn1C [Polyamide 1041, ImPPβPIPβPPIγβPβPPPβPPPβDp] showed an IC50 greater than 10 µM.

Work on ImPPPPγPPPPPβTa-BOFLX [Polyamide 1008] yielded an IC50 greater than 10 µM.

Work on CN(C)CCCNC(=O)CCNC(=O)c1cc(NC(=O)c2nc(NC(=O)c3nc(NC(=O)c4cc(NC(=O)CCCNC(=O)c5nc(NC(=O)c6cc(NC(=O)c7cc(NC(=O)c8nccn8C)cn7C)cn6C)cn5C)cn4C)cn3C)cn2C)cn1C [Polyamide 1017, ImPPIγPIIPβDp] yielded an IC50 greater than 10 µM.

CN(CCCN)CCCNC(=O)CCNC(=O)c1cc(NC(=O)c2cc(NC(=O)c3cc(NC(=O)c4cc(NC(=O)c5cc(NC(=O)[C@H](N)CCNC(=O)c6cc(NC(=O)c7cc(NC(=O)c8cc(NC(=O)c9cc(NC(=O)c%10nccn%10C)cn9C)cn8C)cn7C)cn6C)cn5C)cn4C)cn3C)cn2C)cn1C [Polyamide 1006, ImPPPPγNH2PPPPPβTa] was tested, and the “antiviral activity in this study” value was “inactive” and the IC50 was greater than 10 µM.

CN(C)CCCNC(=O)CCNC(=O)c1cc(NC(=O)c2cc(NC(=O)c3cc(NC(=O)c4cc(NC(=O)c5cc(NC(=O)CCCNC(=O)c6cc(NC(=O)c7nc(NC(=O)c8nc(NC(=O)CCNC(=O)c9nccn9C)cn8C)cn7C)cn6C)cn5C)cn4C)cn3C)cn2C)cn1C [Polyamide 1016, ImβIIPγPPPPPβDp] showed an IC50 greater than 10 µM.

Molecule CN(C)CCCNC(=O)c1cc(NC(=O)c2cc(NC(=O)CCNC(=O)c3cc(NC(=O)c4cc(NC(=O)c5cc(NC(=O)CCNC(=O)c6cc(NC(=O)c7cc(NC(=O)CCCNC(=O)CCNC(=O)c8cc(NC(=O)c9cc(NC(=O)CCNC(=O)c%10cc(NC(=O)c%11cc(NC(=O)c%12cc(NC(=O)c%13nccn%13C)cn%12C)cn%11C)cn%10C)cn9C)cn8C)cn7C)cn6C)cn5C)cn4C)cn3C)cn2C)cn1C [Polyamide 1056, ImPPPβPPβγPPβPPPβPPDp] has an IC50 greater than 10 µM.

CN(C)CCCNC(=O)CCNC(=O)c1cc(NC(=O)c2nc(NC(=O)c3cc(NC(=O)c4cc(NC(=O)CCCNC(=O)c5cc(NC(=O)c6cc(NC(=O)c7cc(NC(=O)c8nccn8C)cn7C)cn6C)cn5C)cn4C)cn3C)cn2C)cn1C [Polyamide 1013, ImPPPγPPIPβDp] was tested, and the IC50 was greater than 10 µM.

In the case of CN(C)CCCNC(=O)CCNC(=O)c1cc(NC(=O)c2cc(NC(=O)c3cc(NC(=O)c4cc(NC(=O)c5cc(NC(=O)c6cc(NC=O)cn6C)cn5C)cn4C)cn3C)cn2C)cn1C [Polyamide 1039, OHC-PPPPPPβDp], the IC50 is reported as greater than 10 µM.

CN(C)CCCNC(=O)CCNC(=O)c1cc(NC(=O)c2cc(NC(=O)c3cc(NC(=O)c4cc(NC(=O)CCCNC(=O)c5nc(NC(=O)c6cc(NC(=O)c7cc(NC(=O)c8nccn8C)cn7C)cn6C)cn5C)cn4C)cn3C)cn2C)cn1C [Polyamide 1011, ImPPIγPPPPβDp] showed an IC50 greater than 10 µM.

CN(C)CCCNC(=O)CCNC(=O)c1cc(NC(=O)c2cc(NC(=O)c3cc(NC(=O)c4nc(NC(=O)CCCNC(=O)c5cc(NC(=O)c6nc(NC(=O)CCNC(=O)c7nccn7C)cn6C)cn5C)cn4C)cn3C)cn2C)cn1C [Polyamide 1014, ImβIPγIPPPβDp] was tested, and the IC50 was greater than 10 µM.

For CN(CCCN)CCCNC(=O)CCNC(=O)c1cc(NC(=O)c2cc(NC(=O)c3cc(NC(=O)c4cc(NC(=O)c5cc(NC(=O)CCCNC(=O)c6cc(NC(=O)c7cc(NC(=O)c8cc(NC(=O)c9cc(NC(=O)c%10nccn%10C)cn9C)cn8C)cn7C)cn6C)cn5C)cn4C)cn3C)cn2C)cn1C [Polyamide 1005, ImPPPPγPPPPPβTa], the IC50 was greater than 10 µM.
